Patent publication US20200063214A1, “METHODS OF IDENTIFYING PATIENTS LIKELY TO BENEFIT FROM TREATMENT WITH A TELOMERASE INHIBITOR” (Geron Corporation, priority 2018, published 2020)
“And” between values parts separate entries of the source, which are not always exact repeats. Equal values may be shown once. “Also recorded” adds a separate entry of the source.

Experiments:
[1] = test system: intermediate-2 or high-risk myelofibrosis (MF) relapsed/refractory to JAK inhibitor; assay: Phase 2 study: spleen response (spleen volume reduction, SVR, by MRI at week 24); format: in vivo, human
Excerpt: (§1) Diagnosis of primary, post-essential thrombocythemia, or post-polycythemia vera MF was required; other eligibility criteria included measurable splenomegaly (by magnetic resonance imaging [MRI]), active MF-related systemic symptoms and platelet count ≥75×10^9/L. Primary endpoints were: spleen response rate (% achieving ≥35% spleen volume reduction [SVR] by MRI at week 24); and symptom response rate (% achieving ≥50% reduction in total symptom score [TSS] per the Myelofibrosis Symptom Assessment Form (MFSAF) v2 at week 24). Key secondary endpoints included safety, overall survival (OS), treatment response, molecular response, and pharmacokinetic and pharmacodynamic relationships.

[2] = test system: intermediate-2 or high-risk myelofibrosis (MF) relapsed/refractory to JAK inhibitor; assay: Phase 2 study: symptom response (total symptom score, TSS, MFSAF v2 at week 24); format: in vivo, human; details: 9.4 mg/kg
Excerpt: as §1

[3] = test system: intermediate-2 or high-risk myelofibrosis (MF) relapsed/refractory to JAK inhibitor; assay: Phase 2 study: overall survival (OS); format: in vivo, human
Excerpt: as §1

[4] = Phase 2 study: adverse events on treatment; format: in vivo, human
Excerpt: as §1

telomerase activity = assay: Pharmacodynamics: telomerase activity (TA) reduction from baseline in study subjects; format: in vivo, human; details: for subjects with Telomerase Activity >30% reduction from baseline / subjects with Telomerase Activity >50% reduction from baseline: both arms
Excerpt: In other embodiments of the invention, telomerase activity and level of hTERT expression in biological samples obtained from patients can be determined to evaluate pharmacodynamic effects and/or monitor patients being treated with a telomerase inhibition. The telomerase activity can be measured using the TRAP (Telomeric Repeat Amplification Protocol) telomerase activity assay. The level of hTERT expression can be determined by measuring the level of hTERT RNA expression in the cells in the biological sample using northern blots or serial analysis of gene expression (SAGE) or other methods.
(§2) Telomerase activity and hTERT was analyzed to evaluate pharmacodynamic effects for imetelstat.

hTERT RNA expression = assay: Pharmacodynamics: hTERT RNA level reduction from baseline, whole blood; format: in vivo, human; details: both arms
Protocol: as §2

human telomerase = details: Asai 2003; Herbert 2005; cited from earlier work
[5] = test system: various cancer cell lines and tumor xenografts in mice; details: cited from earlier work
[6] = test system: patients with essential thrombocythemia; details: phase 2, essential thrombocythemia; cited from earlier work
[7] = test system: intermediate-2 (int-2) or high-risk myelofibrosis (MF); details: 33-patient pilot study, Tefferi 2015; cited from earlier work
[8] = 9.4 mg/kg, all with baseline TL data, N = 53
[9] = all with baseline TL data, N = 53
[10] = 9.4 mg/kg arm, Non-TN (MUT), second clinical cutoff
[11] = 9.4 mg/kg arm, Triple Negative (TN), second clinical cutoff
[12] = 4.7 MG/KG, all subjects with baseline TL (N 40)
[13] = 4.7 MG/KG, all subjects with baseline TL (N 40), first clinical cutoff
[14] = 4.7 MG/KG, baseline TL <=Median Value
[15] = 4.7 MG/KG, baseline TL >Median Value
[16] = 9.4 MG/KG, all subjects with baseline TL (N 53)
[17] = 9.4 MG/KG, baseline TL <=Median Value
[18] = 9.4 MG/KG, baseline TL >Median Value
[19] = Spleen Response at wk 24 by IRC: No
[20] = Spleen Response at wk 24 by IRC: Yes

## imetelstat: 13-mer oligonucleotide that targets the RNA template of human telomerase; first-in-class telomerase inhibitor (TAGGGTTAGACAA; 5' palmitoyl amidopropyl, thio-phosphoramidate, sodium salt, further chemistry not given here)
[1]; 9.4 mg/kg
  responses (SVR or TSS) in patients with HMR having greater than one mutation: responses were observed
[1]; 9.4 mg/kg arm, week 24
  rate of response (SVR or TSS), LMR or HMR with only 1 mutation compared to HMR with more than 1 mutations: enriched
  rate of response (SVR or TSS), TN group compared to Non-TN group: enriched
  rate of response (SVR or TSS), shorter baseline TL compared to longer TL: enriched; also recorded: higher rate of response
[1]; 9.4 mg/kg, Longer TL (>Median value), 24 subjects
  subjects with SVR >= 35% at week 24 by IRC, No: 23 (92.7%)
[1]; 9.4 mg/kg, Shorter TL (<= Median value), 29 subjects
  subjects with SVR >= 35% at week 24 by IRC, No: 24 (82.75%)
[1]; [8]
  subjects with SVR >= 35% at Week 24 by IRC, Yes: (10.5%)
  subjects with SVR >= 35% at week 24 by IRC, No: (89.5%)
[2]; Longer TL (>Median value), 24 subjects
  subjects with TSS >= 50% decrease at week 24, No: 18 (75%)
[2]; Shorter TL (<= Median value), 29 subjects
  subjects with TSS >= 50% decrease at week 24, No: 19 (65.6%)
[2]; [9]
  subjects with TSS >= 50% decrease at week 24, No: (69.8%)
  subjects with TSS >= 50% decrease at week 24, Yes: (30.2%)
[3]; 9.4 mg/kg arm
  OS trend, shorter baseline TL (<= median TL): better OS trend
[3]; [10]
  Median survival, months (95% CI): 24.6 (19.7, NE) months
  Percentage of Subjects Who Died: 21/41 (51.2%)
[3]; 9.4 mg/kg arm, Non-TN subjects, first clinical cutoff
  Median survival, months (95% CI): 23.6 months
[3]; 9.4 mg/kg arm, Non-TN vs TN, second clinical cutoff
  OS HR (Hazard Ratio) (95% CI): 2.60 (0.89, 7.59)
[3]; 9.4 mg/kg arm, TN subjects, first clinical cutoff
  Median survival, months (95% CI): not estimable
[3]; [11]
  Median survival, months (95% CI): NE (23.2, NE)
  Percentage of Subjects Who Died: 4/16 (25.0%)
[3]; [12]
  18-months survival rate % (95% CI): 68.2 %
  24-months survival rate % (95% CI): 39.6 %
[3]; [13]
  Number of events (OS): 20
  Overall Survival (months) Median (95% CI): 22.3 (18.2, NE) months
[3]; [14]
  18-months survival rate % (95% CI): 76.7 %
  24-months survival rate % (95% CI): 34.1 %
[3]; 4.7 MG/KG, baseline TL <=Median Value, first clinical cutoff
  Number of events (%) (OS): 10(25.0%)
[3]; [15]
  18-months survival rate % (95% CI): 61.0 %
  24-months survival rate % (95% CI): 46.6 %
[3]; 4.7 MG/KG, baseline TL >Median Value, first clinical cutoff
  Number of events (%) (OS): 10(25.0%)
[3]; 4.7 MG/KG, longer baseline TL (>Median Value), first clinical cutoff
  Overall Survival (months) Median (95% CI): 22.3 (16.6, NE) months and 22.3 months
[3]; 4.7 MG/KG, shorter baseline TL (<=Median Value), first clinical cutoff
  Overall Survival (months) Median (95% CI): 20.3 (17.2, NE) months and 20.3 months
[3]; [16]
  18-months survival rate % (95% CI): 75.9 %
  24-months survival rate % (95% CI): 54.2 %
[3]; 9.4 MG/KG, all subjects with baseline TL (N 53), first clinical cutoff
  Number of events (OS): 18
[3]; [17]
  18-months survival rate % (95% CI): 81.2 %
  24-months survival rate % (95% CI): 59.3 %
[3]; 9.4 MG/KG, baseline TL <=Median Value, first clinical cutoff
  Number of events (%) (OS): 8(15.1%)
[3]; [18]
  18-months survival rate % (95% CI): 69.8 %
  24-months survival rate % (95% CI): 47.6 %
[3]; 9.4 MG/KG, baseline TL >Median Value, first clinical cutoff
  Number of events (%) (OS): 10(18.9%)
[3]; 9.4 MG/KG, longer baseline TL (>Median Value), first clinical cutoff
  Overall Survival (months) Median (95% CI): 22.8 months
[3]; 9.4 MG/KG, shorter baseline TL (<=Median Value), first clinical cutoff
  Overall Survival (months) Median (95% CI): not estimable
[4]
  Imetelstat-related hepatic toxicities, confirmed by independent Hepatic Review Committee: not observed
Telomerase activity; 9.4 mg/kg arm vs […] arm
  PD effect (telomerase activity and hTERT RNA reduction), 9.4 vs […]: dose-dependent PD effect
Telomerase activity; 4.7 MG/KG, 34 subjects with baseline
  subjects achieving TA >=30% decrease from baseline at any timepoint: 14 (41.2%)
Telomerase activity; 9.4 MG/KG, 45 subjects with baseline
  subjects achieving TA >=30% decrease from baseline at any timepoint: 28 (62.2%)
Telomerase activity; [19]
  subjects with Telomerase Activity >30% reduction from baseline: 41/70 (58.6%)
  subjects with Telomerase Activity >50% reduction from baseline: 34/70 (48.6%)
Telomerase activity; [20]
  subjects with Telomerase Activity >30% reduction from baseline: 3/4 (75%)
  subjects with Telomerase Activity >50% reduction from baseline: 2/4 (50%)
Telomerase activity; TSS Response at wk 24: No
  subjects with Telomerase Activity >30% reduction from baseline: 29/56 (51.8%)
  subjects with Telomerase Activity >50% reduction from baseline: 24/56 (42.9%)
Telomerase activity; TSS Response at wk 24: Yes
  subjects with Telomerase Activity >30% reduction from baseline: 15/18 (83.3%)
  subjects with Telomerase Activity >50% reduction from baseline: 12/18 (66.7%)
hTERT RNA expression; TSS Response at wk 24: No
  subjects with hTERT>50% reduction from baseline: 45/81 (55.6%)
hTERT RNA expression; TSS Response at wk 24: Yes
  subjects with hTERT>50% reduction from baseline: 15/24 (62.5%)
Human telomerase
  inhibition of telomerase enzymatic activity: potent competitive inhibitor
[5]
  telomerase activity and cell proliferation: inhibits telomerase activity and cell proliferation
[6]
  JAK2 V617F and CALR mutant allele burdens: significant reduction
  platelet-lowering activity: platelet-lowering activity
[7]
  clinical activity and safety profile: Clinical activity and an acceptable safety profile
